Experimental data reported in PubChem BioAssay AID248 (DTP/NCI, 2004).
Several values for one entry are separate records, joined by “and”; a condition that tells them apart may be missing. Equal values may be shown once. Inconclusive results and toxic doses are left out.

Tested on: L1210 leukemia ip in BDF1 mice, survival T/C
Test: NCI In Vivo Anticancer Drug Screen. Data for tumor model L1210 Leukemia (intraperitoneal) in B6D2F1 (BDF1) mice
Conditions: endpoint: mean survival time, higher = longer survival
Method in brief: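 Ratio derived from survival: compound-dosed mice over vehicle-dosed mice, all bearing a transplantable tumor.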

[1] = dose: 100.0 mg/kg/injection, schedule: Q01DX001 (ip), vehicle: carboxymethylcellulose (CMC)
[2] = dose: 200.0 mg/kg/injection, schedule: Q01DX001 (ip), vehicle: carboxymethylcellulose (CMC)
[3] = dose: 400.0 mg/kg/injection, schedule: Q01DX001 (ip), vehicle: carboxymethylcellulose (CMC)
[4] = dose: 100.0 mg/kg/injection, schedule: Q01DX009 (ip), vehicle: saline with Tween-80
[5] = dose: 100.0 mg/kg/injection, schedule: Q04DX002 (ip), vehicle: saline with Tween-80
[6] = dose: 100.0 mg/kg/injection, schedule: Q04DX003 (ip), vehicle: saline with Tween-80
[7] = dose: 200.0 mg/kg/injection, schedule: Q01DX009 (ip), vehicle: saline with Tween-80
[8] = dose: 200.0 mg/kg/injection, schedule: Q04DX002 (ip), vehicle: saline with Tween-80
[9] = dose: 200.0 mg/kg/injection, schedule: Q04DX003 (ip), vehicle: saline with Tween-80
[10] = dose: 400.0 mg/kg/injection, schedule: Q01DX009 (ip), vehicle: saline with Tween-80
[11] = dose: 400.0 mg/kg/injection, schedule: Q04DX002 (ip), vehicle: saline with Tween-80
[12] = dose: 400.0 mg/kg/injection, schedule: Q04DX003 (ip), vehicle: saline with Tween-80
[13] = dose: 100.0 mg/kg/injection, schedule: Q04DX003 (ip), vehicle: saline
[14] = dose: 100.0 mg/kg/injection, schedule: Q01DX009 (ip), vehicle: Klucel (hydroxypropylcellulose) (HPC)
[15] = dose: 200.0 mg/kg/injection, schedule: Q01DX009 (ip), vehicle: Klucel (hydroxypropylcellulose) (HPC)
[16] = dose: 400.0 mg/kg/injection, schedule: Q01DX009 (ip), vehicle: Klucel (hydroxypropylcellulose) (HPC)
[17] = dose: 100.0 mg/kg/injection, schedule: Q01DX001 (ip), vehicle: saline
[18] = dose: 200.0 mg/kg/injection, schedule: Q01DX001 (ip), vehicle: saline
[19] = dose: 400.0 mg/kg/injection, schedule: Q01DX001 (ip), vehicle: saline

In the case of `CCn1c2ccccc2c2cc(N=C3C(=O)N(C)c4ccccc43)ccc21`, the T/C [1] is reported as 95 % of control, the T/C [2] is reported as 95 % of control and the T/C [3] is reported as 95 % of control.

With `COc1ccc(C)cc1NC(=S)NC(=O)/C=C/c1ccccc1` the T/C (dose: 100.0 mg/kg/injection, schedule: Q01DX001 (ip), vehicle: saline with Tween-80) was 90 % of control, the T/C [4] was 93 % of control and 100 % of control and the T/C [5] was 93 % of control and 94 % of control. The T/C [6] was 91 % of control, the T/C (dose: 200.0 mg/kg/injection, schedule: Q01DX001 (ip), vehicle: saline with Tween-80) was 91 % of control and the T/C [7] was 93 % of control and 88 % of control. For the same compound, the T/C [8] was 94 % of control and 90 % of control, the T/C [9] was 93 % of control and the T/C (dose: 400.0 mg/kg/injection, schedule: Q01DX001 (ip), vehicle: saline with Tween-80) was 90 % of control. The T/C [10] was 100 % of control and 103 % of control, the T/C [11] was 97 % of control and 89 % of control and the T/C [12] was 91 % of control.

With `CCOC(=O)/C=C/c1c(OC)cc(OC)cc1OC` the T/C (dose: 100.0 mg/kg/injection, schedule: Q01DX009 (ip), vehicle: other) was 97 % of control, the T/C [13] was 101 % of control and the T/C (dose: 200.0 mg/kg/injection, schedule: Q01DX009 (ip), vehicle: other) was 106 % of control. For the same compound, the T/C (dose: 200.0 mg/kg/injection, schedule: Q04DX003 (ip), vehicle: saline) was 101 % of control, the T/C (dose: 400.0 mg/kg/injection, schedule: Q01DX009 (ip), vehicle: other) was 94 % of control and the T/C (dose: 400.0 mg/kg/injection, schedule: Q04DX003 (ip), vehicle: saline) was 93 % of control.

With `O[Si](c1ccccc1)(c1ccccc1)c1ccccc1` the T/C [4] was 95 % of control, the T/C [5] was 100 % of control and the T/C [7] was 88 % of control. For the same compound, the T/C [8] was 96 % of control, the T/C [10] was 91 % of control and the T/C [11] was 87 % of control.

With `S=C(Nc1ccc(Cl)c(Cl)c1)SCc1ccco1` the T/C (dose: 30.0 mg/kg/injection, schedule: Q04DX003 (ip), vehicle: saline with Tween-80) was 101 % of control, the T/C (dose: 60.0 mg/kg/injection, schedule: Q04DX003 (ip), vehicle: saline with Tween-80) was 101 % of control and the T/C (dose: 120.0 mg/kg/injection, schedule: Q04DX003 (ip), vehicle: saline with Tween-80) was 101 % of control.

With `Cc1cccc(C(C)(C)CO)c1` the T/C (dose: 50.0 mg/kg/injection, schedule: Q01DX009 (ip), vehicle: saline with Tween-80) was 100 % of control, the T/C [4] was 96 % of control and the T/C [7] was 96 % of control.

`S=P(Nc1ccc(Cl)cc1Cl)(Nc1ccc(Cl)cc1Cl)c1ccccc1` was tested, and the T/C [14] was 102 % of control, the T/C [15] was 100 % of control and the T/C [16] was 110 % of control.

For `O=C(CN1CCOCC1)N1CCN(C(=O)CN2CCOCC2)CC1`, the T/C (dose: 50.0 mg/kg/injection, schedule: Q01DX001 (ip), vehicle: carboxymethylcellulose (CMC)) was 92 % of control, the T/C [1] was 97 % of control and the T/C [2] was 95 % of control. For the same compound, the T/C [3] was 101 % of control.

For `O=[N+]([O-])c1cccc(OCCOc2cccc([N+](=O)[O-])c2)c1`, the T/C [17] was 97 % of control, the T/C [18] was 96 % of control and the T/C [19] was 103 % of control.

With `CCCCNC(=O)Nc1ccc(N(CC)CC)cc1` the T/C [4] was 101 % of control, the T/C [6] was 94 % of control and the T/C [7] was 88 % of control. The T/C [9] was 97 % of control, the T/C [10] was 90 % of control and the T/C [12] was 100 % of control.

In the case of `O=C(CCCCCCC(=O)C[n+]1ccccc1Br)C[n+]1ccccc1Br`, the T/C (dose: 1.4 mg/kg/injection, schedule: Q04DX003 (ip), vehicle: saline) is reported as 105 % of control, the T/C (dose: 2.8 mg/kg/injection, schedule: Q04DX003 (ip), vehicle: saline) is reported as 100 % of control and the T/C (dose: 5.6 mg/kg/injection, schedule: Q04DX003 (ip), vehicle: saline) is reported as 97 % of control.

For `O=C1C(NCCO)=C(N2CC2)C(=O)C(NCCO)=C1N1CC1`, the T/C (dose: 0.04 mg/kg/injection, schedule: Q01DX009 (ip), vehicle: saline) was 115 % of control, the T/C (dose: 0.09 mg/kg/injection, schedule: Q01DX009 (ip), vehicle: saline) was 111 % of control and the T/C (dose: 0.09 mg/kg/injection, schedule: Q04DX003 (ip), vehicle: saline) was 121 % of control. For the same compound, the T/C (dose: 0.18 mg/kg/injection, schedule: Q01DX009 (ip), vehicle: saline) was 159 % of control and 164 % of control and 195 % of control, the T/C (dose: 0.18 mg/kg/injection, schedule: Q04DX003 (ip), vehicle: saline) was 120 % of control and the T/C (dose: 0.19 mg/kg/injection, schedule: Q01DX009 (ip), vehicle: saline) was 153 % of control. The T/C (dose: 0.37 mg/kg/injection, schedule: Q01DX001 (ip), vehicle: saline) was 103 % of control, the T/C (dose: 0.37 mg/kg/injection, schedule: Q01DX009 (ip), vehicle: saline) was 157 % of control and 164 % of control and 212 % of control and the T/C (dose: 0.37 mg/kg/injection, schedule: Q04DX003 (ip), vehicle: saline) was 155 % of control and 157 % of control. The T/C (dose: 0.38 mg/kg/injection, schedule: Q01DX009 (ip), vehicle: saline) was 184 % of control, the T/C (dose: 0.75 mg/kg/injection, schedule: Q04DX003 (ip), vehicle: saline) was 170 % of control and 231 % of control and the T/C (dose: 1.5 mg/kg/injection, schedule: Q01DX001 (ip), vehicle: saline) was 275 % of control. The T/C (dose: 1.5 mg/kg/injection, schedule: Q04DX003 (ip), vehicle: saline) was 160 % of control and 164 % of control and 186 % of control, the T/C (dose: 1.56 mg/kg/injection, schedule: Q04DX003 (ip), vehicle: saline) was 103 % of control and the T/C (dose: 3.0 mg/kg/injection, schedule: Q04DX003 (ip), vehicle: saline) was 104 % of control and 115 % of control.

`CN(C)c1nc2c(=O)[nH]cnc2n1C1OC(CO)C(O)C1O` (stereo not given) was tested, and the T/C (dose: 50.0 mg/kg/injection, schedule: Q01DX001 (ip), vehicle: saline) was 95 % of control, the T/C [17] was 93 % of control and the T/C [18] was 112 % of control. The T/C [19] was 95 % of control.

With `CCOc1ccc(NC(=O)OCCOc2ccccc2)cc1` the T/C [14] was 104 % of control, the T/C [15] was 100 % of control and the T/C [16] was 94 % of control.

`N#C/C(=C\c1cccn1Cc1cc2c(cc1[N+](=O)[O-])OCO2)C(N)=O` was tested, and the T/C (dose: 25.0 mg/kg/injection, schedule: Q04DX002 (ip), vehicle: Klucel (hydroxypropylcellulose) (HPC)) was 96 % of control, the T/C (dose: 50.0 mg/kg/injection, schedule: Q04DX002 (ip), vehicle: Klucel (hydroxypropylcellulose) (HPC)) was 96 % of control and the T/C (dose: 100.0 mg/kg/injection, schedule: Q04DX002 (ip), vehicle: Klucel (hydroxypropylcellulose) (HPC)) was 96 % of control.

For `Cc1ccc(C)c(N=C=O)c1`, the T/C (dose: 6.25 mg/kg/injection, schedule: Q01DX009 (ip), vehicle: saline with Tween-80) was 98 % of control, the T/C (dose: 12.5 mg/kg/injection, schedule: Q01DX009 (ip), vehicle: saline with Tween-80) was 96 % of control and the T/C (dose: 25.0 mg/kg/injection, schedule: Q01DX009 (ip), vehicle: saline with Tween-80) was 93 % of control. The T/C [6] was 104 % of control and the T/C [9] was 109 % of control.

In the case of `c1ccc(C2=C(c3ccccc3)N=c3ccccc3=c3ccccc3=N2)cc1`, the T/C [14] is reported as 98 % of control, the T/C (dose: 100.0 mg/kg/injection, schedule: Q04DX003 (ip), vehicle: Klucel (hydroxypropylcellulose) (HPC)) is reported as 94 % of control and the T/C [15] is reported as 94 % of control. The T/C (dose: 200.0 mg/kg/injection, schedule: Q04DX003 (ip), vehicle: Klucel (hydroxypropylcellulose) (HPC)) was 94 % of control, the T/C [16] was 94 % of control and the T/C (dose: 400.0 mg/kg/injection, schedule: Q04DX003 (ip), vehicle: Klucel (hydroxypropylcellulose) (HPC)) was 102 % of control.

With `CCCc1c(Cl)nc(Cl)nc1Cl` the T/C (dose: 37.5 mg/kg/injection, schedule: Q01DX009 (ip), vehicle: acetone) was 111 % of control, the T/C (dose: 66.0 mg/kg/injection, schedule: Q04DX003 (ip), vehicle: saline) was 104 % of control and 105 % of control and the T/C [1] was 100 % of control. For the same compound, the T/C [13] was 100 % of control and 104 % of control, the T/C (dose: 150.0 mg/kg/injection, schedule: Q04DX003 (ip), vehicle: saline) was 106 % of control and 107 % of control and the T/C [2] was 108 % of control. The T/C [3] was 96 % of control.

In the case of `CCOc1cc(C)c2cccc(C)c2n1`, the T/C [1] is reported as 88 % of control, the T/C (dose: 100.0 mg/kg/injection, schedule: Q01DX001 (ip), vehicle: other) is reported as 95 % of control and the T/C [2] is reported as 96 % of control. For the same compound, the T/C (dose: 200.0 mg/kg/injection, schedule: Q01DX001 (ip), vehicle: other) was 106 % of control and the T/C [3] was 98 % of control.
